# Measurements reported in patent US20060154880A1, “Methods and compositions using immunomodulatory compounds for treatment and management of parasitic diseases” (priority 2004, published 2006).
# Experiments:
# [1] = cited from earlier work; for hygroscopicity: polymorphic form, solid state; for stability / interconversion of polymorphic form: solvent system as stated
# [2] = tested on: TNF-α production; assay: Inhibition of TNF-α production following LPS-stimulation of human PBMC; format: cell-based
# [3] = tested on: T-cells; assay: Stimulation of T-cell proliferation following primary induction by TCR activation; format: cell-based
# [4] = tested on: IL-2 production; assay: Augmentation of IL-2 production following TCR activation of PBMC; format: cell-based
# [5] = tested on: IFN-γ production; assay: Augmentation of IFN-γ production following TCR activation of T-cells; format: cell-based
# [6] = tested on: IL-1β production; assay: LPS-stimulated production of IL-1β by PBMC; format: cell-based
# [7] = tested on: IL-6 production; assay: LPS-stimulated production of IL-6 by PBMC; format: cell-based
# [8] = tested on: IL-10 production; assay: LPS-stimulated production of IL-10 by PBMC; format: cell-based
smiles,measurement,setting,value
"Nc1cccc2c1CN(C1CCC(=O)NC1=O)C2=O (stereo not shown) [Form D, 3-(4-amino-1-oxo-1,3 dihydro-isoindol-2-yl)-piperidene-2,6-dione]",hygroscopicity,[1],either weakly or not hygroscopic
Nc1cccc2c1CN(C1CCC(=O)NC1=O)C2=O (stereo not shown),effect on LPS-stimulated production of TNF-α by PBMC,[2],dose-dependent inhibition
same,potency relative to thalidomide in stimulating the proliferation of T-cells,[3],50-100 times
same,potency relative to thalidomide in augmenting the production of IL-2,[4],50-100 times
same,potency relative to thalidomide in augmenting the production of IFN-γ,[5],50-100 times
same,effect on LPS-stimulated production of IL-1β by PBMC,[6],dose-dependent inhibition
same,effect on LPS-stimulated production of IL-6 by PBMC,[7],dose-dependent inhibition
same,effect on production of the anti-inflammatory cytokine IL-10,[8],increased production
"Nc1cccc2c1CN(C1CCC(=O)NC1=O)C2=O (stereo not shown) [Form C, 3-(4-amino-1-oxo-1,3 dihydro-isoindol-2-yl)-piperidene-2,6-dione]",hygroscopicity,[1],not hygroscopic below about 85% RH
"Nc1cccc2c1CN(C1CCC(=O)NC1=O)C2=O (stereo not shown) [Form A, 3-(4-amino-1-oxo-1,3 dihydro-isoindol-2-yl)-piperidene-2,6-dione]",hygroscopicity,[1],weakly or not hygroscopic
same,stability / interconversion of polymorphic form,[1],most thermodynamically stable anhydrous polymorph
"Nc1cccc2c1CN(C1CCC(=O)NC1=O)C2=O (stereo not shown) [Form E, 3-(4-amino-1-oxo-1,3 dihydro-isoindol-2-yl)-piperidene-2,6-dione]",stability / interconversion of polymorphic form,[1],most stable form
"Nc1cccc2c1CN(C1CCC(=O)NC1=O)C2=O (stereo not shown) [Form B, 3-(4-amino-1-oxo-1,3 dihydro-isoindol-2-yl)-piperidene-2,6-dione]",stability / interconversion of polymorphic form,[1],converts to Form E in aqueous solvent systems
